# Legend:
# [1] = system: 4T1 cells; assay: CCK-8 assay, toxicity on cancer cells; assay type: cell-based, mouse; details: CCK-8, 48 hours
# Procedure: The toxicity of ARV-771 and ECMal-PROTAC on cancer cells was analyzed by the CCK-8 (cell counting kit-8) assay. 4T1 cells were dispensed into a 96-well culture plate at 3×10^3 cells per well. They were cultured for 24 hours at 37° C. and 5% carbon dioxide atmosphere. The cells were treated with different concentrations of ARV-771 (0.01 to 100 μM), the complex for cancer targeting (ECMal-PROTAC) of example 1 (0.01 to 100 μM), and the complex for cancer targeting (Mal-PROTAC) of example 2 (0.01 to 100 μM) separately, and cultured for 48 hours. After exposing each well to 10% CCK-8-containing culture media for 30 minutes, the viability of 4T1 cells treated with ARV-771 or 4T1 cells treated with ECMal-PROTAC or Mal-PROTAC was analyzed with a microplate reader. The change in cell viability according to the concentration of ARV-771 or ECMal-PROTAC or Mal-PROTAC was calculated using GraphPad Prism 8 software (GraphPad Software, San Diego, CA, USA) by fitting the IC50 (haf-maximal inhibitory concentration) value.
# [2] = system: 4T1 tumor; assay: In vivo anticancer efficacy, tumor size in 4T1 cancer animal model; set-up: species or system mouse; details: 10 mg/kg, tail vein, once every 3 days for 15 days
# Procedure: 5-week-old female Balb/c and Balb/c nu/nu mice were purchased from NaraBio, Inc (Seoul, Republic of Korea). The mice underwent a 2-week acclimatization period before the example. The mice were raised under free-feeding conditions in a breeding room maintained at a temperature of 22±2° C. and humidity of 40-60% during the example. The light and dark cycle was regulated at 12-hour intervals. All examples were conducted in compliance with the relevant laws and institutional guidelines of the KIST Institutional Animal Care and Use Committee (IACUC; Approval No.: 2021-143).
# Cancer animal models were prepared by inoculating 1×10^6 4T1 cells into the left thigh of the mice, and raising them until the tumor volume reached 50-80 mm^3.
# For the preparation of the control group, the comparison group, and the example group, mice were randomly divided into groups of 5.
# (§1) The control group was administered saline (10 mg/kg) once every 3 days for 15 days through the tail vein (total 4 administrations). The comparison group was administered ARV-771 (10 mg/kg) once every 3 days for 15 days through the tail vein (total 4 administrations). The example group was administered ECMal-PROTAC 10 mg/kg (wquiv. to ARV-771) of example 1 once every 3 days for 15 days through the tail vein (total 4 administrations).
# (§2) Tumor size and body weight were measured every two days for the control group, the comparison group, and the example group.
# [3] = biological target: T1, BSA (bovine serum albumin) (Bos taurus, UniProt P02769); assay: In vitro binding of ECMal-PROTAC to albumin (thiol-maleimide reaction), RP-HPLC; details: ARV-771 140 μM, BSA 200 μM; mixed for more than 60 minutes
# T1 construct: free Cys34 thiol reacts with maleimide
# T1 sequence (P02769 25-607): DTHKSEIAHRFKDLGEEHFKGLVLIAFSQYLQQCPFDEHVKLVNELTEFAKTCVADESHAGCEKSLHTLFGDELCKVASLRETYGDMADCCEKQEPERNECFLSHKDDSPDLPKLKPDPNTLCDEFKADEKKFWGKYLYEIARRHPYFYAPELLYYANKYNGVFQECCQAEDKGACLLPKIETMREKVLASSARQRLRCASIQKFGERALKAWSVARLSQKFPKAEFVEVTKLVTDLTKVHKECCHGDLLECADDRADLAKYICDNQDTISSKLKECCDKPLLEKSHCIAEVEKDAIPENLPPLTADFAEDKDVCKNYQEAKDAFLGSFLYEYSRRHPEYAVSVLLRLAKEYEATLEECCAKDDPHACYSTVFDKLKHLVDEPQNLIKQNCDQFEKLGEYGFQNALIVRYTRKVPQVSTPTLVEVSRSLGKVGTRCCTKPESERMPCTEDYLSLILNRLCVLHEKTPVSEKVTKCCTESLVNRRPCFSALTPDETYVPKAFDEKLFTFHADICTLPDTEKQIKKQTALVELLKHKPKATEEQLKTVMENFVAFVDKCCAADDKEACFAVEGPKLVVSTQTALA
# Procedure: The binding rate of ECMal-PROTAC from example 1 and albumin was confirmed through RP-HPLC. Specifically, a BSA solution (200 μM) diluted with PBS was co-incubated by mixing it with an ECMal-PROTAC aqueous solution (140 μM) of example 1 at a 1:1 volume ratio. The culture was collected at incubation times of 0 minutes, 5 minutes, 30 minutes, and 60 minutes. It was quenched with mercaptoethanol, and HPLC spectra for each sample were acquired through concentration gradient of the eluent (ACN/H2O, 20/80 to 80/20 (v/v), 30 minutes).
# To verify the albumin binding ability of the complex for cancer targeting (ECMal-PROTAC) of example 1, the mixture of BSA and the complex for cancer targeting (ECMal-PROTAC) was analyzed by LC-MS spectrum, and compared with the LC-MS spectrum of free BSA.
# FIG. 4 is the HPLC spectrum of a mixture of BSA and the complex for cancer targeting (ECMal-PROTAC). According to this, it can be seen that BSA and the complex for cancer targeting (ECMal-PROTAC) rapidly bind through a thiol-maleimide click chemical reaction. To confirm the albumin binding ability of the complex for cancer targeting (ECMal-PROTAC) of example 1, bovine serum albumin (BSA), which has a structure similar to human serum albumin (HSA), was used for analysis.
# At this time, the HPLC spectra were also analyzed for a co-incubation of ARV-771 (140 μM) and BSA solution (200 μM) mixed at a 1:1 volume ratio as a comparative example, and for the ECMal-PROTAC solution and BSA solution alone without any treatment of example 1.
# From the HPLC results for the BSA and complex for cancer targeting (ECMal-PROTAC) mixture in Experimental Example 1 and the thiol-blocked BSA and complex for cancer targeting (ECMal-PROTAC) mixture in Experimental Example 2, the reduction in the HPLC peak area associated with the complex for cancer targeting (ECMal-PROTAC) was quantified.
# [4] = Body weight and systemic side effects; assay type: in vivo, mouse; details: 10 mg/kg, i.v., once every 3 days for 15 days
# Procedure: as §1, §2
# [5] = biological target: T2, BRD4 (Mus musculus, UniProt Q9ESU6); assay: Western blot, BRD4 degradation in 4T1 cells; assay type: cell-based; details: 24 hours
# T2 construct: Western blot after PROTAC (ARV-771 release, VHL recruiting)
# Procedure: (§3) Accordingly, Western blot analysis was performed to confirm the anticancer ability by evaluating the presence or absence of degradation of BRD4 and other related proteins (e.g., c-Myc and Bcl-2) when cancer cells were treated with the complex for cancer targeting (ECMal-PROTAC) of example 1. The complex for cancer targeting (ECMal-PROTAC) of example 1 and ARV-771 were prepared as samples.
# (§4) First, 1×10^5 4T1 cells were dispensed into each well of a 6-well culture plate and cultured for 24 hours at 37° C. and 5% carbon dioxide atmosphere. The cell culture medium was supplemented with various concentrations of ARV-771 (0 to 10 μM) or the complex for cancer targeting (ECMal-PROTAC) of example 1 (0 to 10 μM), and cultured at 37° C. for 24 hours. After the culture was completed, the cells were washed 3 times with PBS, and lysed with a lysis buffer containing 1% […]. Cell debris from the recovered lysate was removed by centrifugation at 12,000 rpm for 25 minutes. After recovering the supernatant, the protein amount was measured using a BCA kit. The supernatant was loaded onto a 10% sodium dodecyl sulfate-polyacrylamide gel. Electrophoresis (SDS-PAGE) was performed, followed by blotting onto a polyvinylidene difluoride (PVDF) membrane. After blotting, the PVDF membrane was treated with 5% BSA-containing tris buffered saline containing 0.1% Tween 20 (TBS-T) for 2 hours to suppress the non-specific binding of IgG (immunoglobulin G). It was immediately exposed to a rabbit anti-mouse primary antibody (1,000:1). After treating at 4° C. for 24 hours, the PVDF membrane was washed 3 times with TBS-T and further incubated with an HRP-conjugated mouse anti-rabbit IgG antibody at room temperature for 1 hour. The immunoreactive bands on the PVDF membrane were analyzed through an ECL (enhanced chemiluminescence) system.
# [6] = system: liver tissue; assay: TUNEL analysis of liver tissue; assay type: in vivo, mouse; details: administered alone (comparison group)
# [7] = system: organ tissue and cancer tissue; assay: H&E histology of major organs and cancer tissue; assay type: in vivo, mouse; details: excised after 15 days
# Procedure: as §1
# The control group, the comparison group, and the example group were euthanized after 15 days, and major organs (heart, liver, lung, spleen, kidney) and cancer tissue were excised.
# Furthermore, to analyze cancer cell apoptosis, TUNEL (terminal deoxynucleotidyl transferase dUTP nick end labeling) analysis was performed on cancer tissue excised from the control group, the comparison group, and the example group. Next, histological analysis was performed by H&E (hematoxylin & eosin) staining of the major organ tissues and cancer tissue of each excised group.
# According to FIG. 29, major organ tissue and cancer tissue were excised from the control group, the comparison group, and the example group after 15 days. The excised organ tissue and cancer tissue were stained with H&E (hematoxylin & eosin). The H&E stained tissue was observed using a BX51 optical microscope (Olympus, Tokyo, Japan) and a TCS SP8 confocal laser microscope.
# [8] = system: BRD4 and c-Myc; assay: Immunofluorescence of excised cancer tissue (DAPI, anti-BRD4, anti-c-Myc); assay type: in vivo, mouse; details: FIG. 33
# Procedure: as §1
# FIG. 33 is an image taken with a confocal laser scanning microscope after staining cancer tissue excised from the control group (Control, Saline), the comparison group (ARV-771, intravenous injection), and the example group (ECMal-PROTAC, intravenous injection) with DAPI, anti-BRD4, and anti-c-Myc.
# [9] = system: Bcl-2; assay: Western blot, Bcl-2 level in 4T1 cells; assay type: cell-based, mouse; details: 0 to 10 μM, 24 hours
# Procedure: as §3
# as §4, with “After blotting, the PVDF membrane was treated with 5% BSA-containing tris buffered saline containing 0.1% Tween 20 (TBS-T) for 2 hours to suppress the non-specific binding of IgG (immunoglobulin G). It was immediately exposed to a rabbit anti-mouse primary antibody (1,000:1). After treating at 4° C. for 24 hours, the PVDF membrane was washed 3 times with TBS-T and further incubated with an HRP-conjugated mouse anti-rabbit IgG antibody at room temperature for 1 hour.” left out
# [10] = system: c-Myc; assay: Western blot, c-Myc level in 4T1 cells; assay type: cell-based, mouse; details: 0 to 10 μM, 24 hours
# Procedure: as §3
# as §4, with “After blotting, the PVDF membrane was treated with 5% BSA-containing tris buffered saline containing 0.1% Tween 20 (TBS-T) for 2 hours to suppress the non-specific binding of IgG (immunoglobulin G). It was immediately exposed to a rabbit anti-mouse primary antibody (1,000:1). After treating at 4° C. for 24 hours, the PVDF membrane was washed 3 times with TBS-T and further incubated with an HRP-conjugated mouse anti-rabbit IgG antibody at room temperature for 1 hour.” left out
# [11] = Particle size by DLS before and after binding to albumin; assay type: physicochemical; details: BSA 200 μM and ECMal-PROTAC 140 μM in PBS, 1:1, 30 minutes
# Procedure: A BSA solution (200 μM) diluted with PBS was co-incubated by mixing it with an ECMal-PROTAC aqueous solution (140 μM) of example 1 at a 1:1 volume ratio.
compound,measurement,setting,value
"Cc1ncsc1-c1ccc([C@H](C)NC(=O)[C@@H]2C[C@@H](O)CN2C(=O)[C@@H](NC(=O)COCCCOCCNC(=O)C[C@@H]2N=C(c3ccc(Cl)cc3)c3c(sc(C)c3C)-n3c(C)nnc32)C(C)(C)C)cc1 [ARV-771, reference compound]",IC50,"[1]; Mus musculus, 4T1, FIGS. 15A and 15B, read-out: IC50 against cancer cells",6.38 µM
same,cancer size vs control (saline),[2],no significant difference
same,increase of cancer size from Day 0,[2],14.8 times
same,interaction with BSA,[3],did not form an interaction
same,systemic side effects,[4],did not show serious systemic side effects
same,weight loss,[4],no significant weight loss was observed
same,DC50,"[5]; Western blot, read-out: DC50 (half-maximal degradation concentration), BRD4",3.38 µM
same,effect on normal tissue and cancer tissue,[6],affect both normal tissue and cancer tissue
same,damage in cancer tissue (H&E),[7],did not observe serious damage
same,damage in organ tissue (H&E),"[7]; liver, lung, spleen, kidney, heart",did not observe serious damage
same,BRD4 degradation in cancer tissue,[8],insufficient to induce apoptosis in cancer tissue
Cc1ncsc1-c1ccc([C@H](C)NC(=O)[C@@H]2C[C@@H](OC(=O)CNC(=O)CCOCCOCCNC(=O)CCN3C(=O)C=CC3=O)CN2C(=O)[C@@H](NC(=O)COCCCOCCNC(=O)C[C@@H]2N=C(c3ccc(Cl)cc3)c3c(sc(C)c3C)-n3c(C)nnc32)C(C)(C)C)cc1 [Mal-PROTAC],IC50 compared to native ARV-771,[1],slight increase in IC50 compared to native ARV-771
same,Bcl-2 level,[9],reduced expression
same,degradation of overexpressed BRD4 protein,[5]; 0 to 10 μM,induce BRD4 deficiency
same,c-Myc level,[10],reduced expression
BSA: bovine serum albumin; 98%,average particle size,[11],5.43±1.42 nm

# From patent US20260325542A1, “CANCER TARGETING COMPLEX, AND COMPOSITION COMPRISING SAME FOR PREVENTING OR TREATING CANCER” (EWHA UNIVERSITY - INDUSTRY COLLABORATION FOUNDATION, priority 2023, published 2026)
